# Values of other authors as cited in patent publication US8703753B2, “Use of tellurium compounds for the treatment of actinic keratosis” (Biomas Ltd., priority 2005, dated 2014).
# Read-outs that look alike come from different tables or passages of the source.
# What was measured:
# [1] = rats, intravenous and intramuscular administration
# interferon (IFN) [2] = conditions: mice
# interferon (IFN) [3] = conditions: humans
smiles,measurement,setting,value
"Cl[TeH]1(Cl)(Cl)OCCO1.N [AS101, ammonium trichloro(dioxyethylene-O,O′)tellurate]",LD50 relative to the immunologically effective dose,[1],500-1000 folds
same,activation of interferon (IFN),interferon (IFN) [2],potent activator
same,activation of interferon (IFN),interferon (IFN) [3],potent activator
same,effect on IL-10 at the m-RNA level,IL-10,inhibit IL-10
